Assay results from patent publication US9604931B2, “Nuclear receptor binding agents” (GTx, Inc., priority 2007, dated 2017).
“Also recorded” adds a separate entry of the source.

How the values were obtained:
[1] = system: Ishikawa endometrial cells; test: Ishikawa growth assay (ALP); type: cell-based; conditions: for Concentration at which proliferation of Ishikawa cells was induced: highest concentration tested
Description: Ishikawa cells were plated at 15,000 cells/well in 24 well plates in DME:F12 (1:1)+5% csFBS w/o phenol red. The cells were maintained in this medium at 37° C. for 3 days. Medium was changed immediately prior to drug treatment for an additional 72 hrs. After 72 hrs, the cells were fixed with formalin and the amount of alkaline phosphatase (ALP) measured by para-nitrophenyl phosphate method.
This effect is one potential concern in the development of ER-α SERMs.

PPAR-γ = PPAR-γ transactivation (PPRE-LUC) in HEK-293 cells co-transfected with ER-β; type: cell-based
Description: FIG. 12 depicts the effect of ER-β ligand on PPAR-γ function through ligand binding domain (LBD). (A). HEK-293 cells were transfected with 0.25 μg PPRE-LUC, 5 ng CMV-renilla LUC and the indicated receptors (PPAR-γ and ER-β for the left panel and PPAR-α and ER-β for the right panel). The cells were treated 24 hrs after transfection with the indicated ligands and harvested 48 hrs after transfection and firefly luciferase activity was measured and normalized to renilla luciferase. (B). H475 in ER-β LBD is important for its function. H475 in ER-β LBD was mutated to alanine (A) using a site directed mutagenesis kit. Transactivation assay was performed as described in panel A in HEK-293 cells with a titration of ER-β ligands in wild type (WT) or ER-β H475A. (C). […] The cells were treated 24 hrs after transfection with the indicated ligands and harvested 48 hrs after transfection and firefly luciferase activity was measured and normalized to renilla luciferase. […] The cells were treated 24 hrs after transfection with the indicated ligands and harvested 48 hrs after transfection and firefly luciferase activity was measured and normalized to renilla luciferase. […] The cells were treated 24 hrs after transfection with the indicated ligands and harvested 48 hrs after transfection and firefly luciferase activity was measured and normalized to renilla luciferase. […]

[2] = system: high fat diet induced obesity in already obese mice; test: High fat diet induced obesity, treatment study (study 3); type: in vivo, C57BL6 male mice
Description: For the treatment obesity study (where the animals were fed with high fat diet for six weeks prior to beginning drug treatment for 18 weeks), MRI scans were performed at weeks 0, 6, 12, 18 and 24.
As the first two studies were designed to prevent obesity (i.e. animals were fed with a high fat diet and treated simultaneously), a subsequent study was conducted to evaluate the ability of 12u to affect body composition in mice that were already fed with the high fat diet and were obese. Mice were divided into three groups with one group fed with normal diet (control) and the other two groups fed with the high fat diet for 6 weeks. […] All the animals were maintained in their respective diets during the entire course of the study.

[3] = system: ovariectomy-induced (postmenopausal) obesity model; test: Ovariectomy-induced obesity model; type: in vivo, female C57BL6 mice; conditions: OVX mice
Description: For the ovariectomy-induced obesity model, 6 week old female C57BL6 mice were sham operated or ovariectomized and the study was carried out for 9 weeks as indicated above.
Since it was shown that β-SERMs affected body composition in an animal model of high fat diet-induced obesity, they might also be effective in an animal model of postmenopausal obesity.

[4] = system: LNCaP prostate cancer cells; test: 3H thymidine incorporation, LNCaP cells; type: cell-based; conditions: 6 days treatment
Description: (§1) The effects of treatment of an ER-β selective NRBA of this invention on cancer cell proliferation was examined using LNCaP prostate cancer cells and C-26 colon cancer cells. LNCaP or C-26 cells were plated in growth medium in 24 well and 6 well plates, respectively. LNCaP cells were treated for 6 days and C-26 cells were treated for 3 days at the indicated concentration. ^3H thymidine incorporation was measured at the end of treatment as an indicator of cell proliferation.

C-26 colon cancer cells = test: 3H thymidine incorporation, C-26 cells; type: cell-based; conditions: 3 days treatment
Description: as §1

[5] = system: Ang II induced hypertension; test: Angiotensin II model, blood pressure; type: in vivo, ovariectomized C57/BJ6 and ERβKO mice; set-up: Systolic pressure / Diastolic pressure: unit: mmHg; conditions: for Diastolic pressure / Systolic pressure: Ang II
Description: Thirty, ten week old female ovariectomized C57/BJ6 mice, were obtained from Harlan/Sprague Dawley and were housed in 12 hour on/off lighting and fed rodent chow devoid of soy or most plant products. Ovariectomized ERβ gene-deleted (ERβKO or ERβ-KO) mice were obtained from Ken Korach, NIEHS. The ERβ mice were originally created by Drs. Smithies, Gustafsson, and colleagues. All mice were identically housed and fed the same chow.
This pellet is well documented to produce physiological levels of E2 in the serum of mice.
Blood pressure was measured 4 times during the 21-day period, using the CODA non-invasive blood pressure measuring system (Kent Scientific, Torrington, Conn.). Measurements were done by volume pressure recordings of the tail.

Q: For N#Cc1cn(-c2ccc(O)cc2)c(=O)c2c(O)cc(O)cc12 [14m, 6,8-dihydroxy-2-(4-hydroxyphenyl)-1-oxo-1,2-dihydroisoquinoline-4-carbonitrile], which Ishikawa cell proliferation [1] is on record?
A: Its Ishikawa cell proliferation is “weakly induced Ishikawa cell proliferation”.

Q: And the “Concentration at which proliferation of Ishikawa cells was induced” value [1]?
A: Its value is 1 µM.

Q: And the “Troglitazone-induced PPAR-γ activity” value (PPAR-γ)?
A: The value was “partially inhibited”.

Q: For O=c1c2c(O)cc(O)cc2c(Br)cn1-c1ccc(O)cc1 [12u, 4-bromo-6,8-dihydroxy-2-(4-hydroxyphenyl)isoquinolin-1(2H)-one], which Ishikawa cell proliferation [1] is on record?
A: The Ishikawa cell proliferation was “weakly induced Ishikawa cell proliferation”.

Q: And the “Concentration at which proliferation of Ishikawa cells was induced” value [1]?
A: Its value is 1 µM.

Q: What about the “Body weight versus normal diet control mice” value ([2]; by week 16) of the same molecule?
A: The value was “not significantly different from normal diet control mice”.

Q: What about the “Body fat increase (MRI)” value ([2]; obese mice, 30 mg/kg/day s.c.) of the same molecule?
A: Its value is “reduced”.

Q: What about the “Body weight gain after start of treatment” value ([2]; obese mice, 30 mg/kg/day s.c. from week 6) of the same molecule?
A: Its value is “prevented further gains in body weight”.

Q: And the Body weight gain [3]?
A: The Body weight gain was “did not inhibit body weight gain”.

Q: What about the “Fat mass (MRI)” value [3] of the same molecule?
A: Its value is “completely prevented the increase in fat mass”.

Q: And the Feed consumption [3]?
A: The Feed consumption was “increased the feed consumption”.

Q: And the “Lean mass (MRI)” value [3]?
A: Its value is “significantly increased lean mass”.

Q: And the Uterine weight [3]?
A: The Uterine weight was “without affecting uterine weight”.

Q: And the WAT weight [3]?
A: The WAT weight was “completely inhibited the WAT”.

Q: And the “Troglitazone-induced PPAR-γ activity” value (PPAR-γ)?
A: Its value is “partially inhibited”.

Q: And the “Growth of LNCaP prostate cancer cells” value [4]?
A: Its value is “significantly inhibited”.

Q: And the “Growth of C-26 colon cancer cells” value (C-26 colon cancer cells)?
A: Its value is “significantly inhibited”.

Q: What about the “Ang II induced hypertension, diastolic pressure” value ([5]; ERβ-KO mice, 21 days) of the same molecule?
A: Its value is “unchanged”.

Q: And the “Ang II induced hypertension, systolic pressure” value ([5]; ERβ-KO mice, 21 days)?
A: Its value is “mildly reduced”.

Q: What about the Diastolic pressure ([5]; ERβKO, 7 days) of the same molecule?
A: The Diastolic pressure was 98.

Q: And the Systolic pressure ([5]; ERβKO, 7 days)?
A: Its Systolic pressure is 143.

Q: And the Diastolic pressure ([5]; ERβKO, 14 days)?
A: The Diastolic pressure was 98.

Q: And the Systolic pressure ([5]; ERβKO, 14 days)?
A: Its Systolic pressure is 147.

Q: And the Diastolic pressure ([5]; ERβKO, 21 days)?
A: Its Diastolic pressure is 96.

Q: What about the Systolic pressure ([5]; ERβKO, 21 days) of the same molecule?
A: Its Systolic pressure is 146.

Q: What about the Diastolic pressure ([5]; ERβKO, time 0) of the same molecule?
A: Its Diastolic pressure is 87.

Q: And the Systolic pressure ([5]; ERβKO, time 0)?
A: The Systolic pressure was 123.

Q: And the Diastolic pressure ([5]; WT, 7 days)?
A: Its Diastolic pressure is 88.

Q: What about the Systolic pressure ([5]; WT, 7 days) of the same molecule?
A: Its Systolic pressure is 120.

Q: And the Diastolic pressure ([5]; WT, 14 days)?
A: The Diastolic pressure was 87.

Q: What about the Systolic pressure ([5]; WT, 14 days) of the same molecule?
A: Its Systolic pressure is 125.

Q: What about the Diastolic pressure ([5]; WT, 21 days) of the same molecule?
A: The Diastolic pressure was 86.

Q: And the Systolic pressure ([5]; WT, 21 days)?
A: Its Systolic pressure is 130.

Q: And the Diastolic pressure ([5]; WT, time 0)?
A: The Diastolic pressure was 85.

Q: What about the Systolic pressure ([5]; WT, time 0) of the same molecule?
A: The Systolic pressure was 120.

Q: What about the “Ang II induced hypertension” value ([5]; wildtype mice, 21 days) of the same molecule?
A: The value was “largely prevented; also recorded: prevented Ang II induced cardiac hypertension”.
